Starred links: 1 amine or outer side, 2 acyl side, 3 side chain; linkers in the order of their positions; H or OH if unused. Non-standard residues stand in square brackets, D forms with d. Residues, ends and D or L forms follow the SMILES beside them. *: point of attachment. dBip = N[C@H](Cc1ccc(-c2ccccc2)cc1)C(=O)O; Oic = O=C(O)[C@@H]1C[C@@H]2CCCC[C@@H]2N1; Phe(4-Cl) = N[C@@H](Cc1ccc(Cl)cc1)C(=O)O; Phe(4-I) = N[C@@H](Cc1ccc(I)cc1)C(=O)O; γGlu = O=C(O)[C@H](CCC(=O)[*:2])N[*:1]; NMeR = CN[C@@H](CCCNC(=N)N)C(=O)O; Tridecanoyl = CCCCCCCCCCCCC(=O)*; hArg = N=C(N)NCCCC[C@H](N)C(=O)O; Cha = N[C@@H](CC1CCCCC1)C(=O)O; NMeL = CN[C@@H](CC(C)C)C(=O)O; αMeL = CC(C)C[C@](C)(N)C(=O)O; αMeP = C[C@@]1(C(=O)O)CCCN1; Nle = CCCC[C@H](N)C(=O)O; AEEA = NCCOCCOCC(=O)O; Aib = CC(C)(N)C(=O)O
What was measured:
[1] = In vitro stability in rat plasma; assay type: in vitro ADME
In short: (§1)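 Apelin peptides were spiked at 5 μM final into rat plasma, liver homogenate or kidney homogenate and incubated at 37° C. for up to 4 hr. Aliquots were quenched with MeOH containing internal standard, centrifuged, and supernatants analyzed by high resolution LC-MS.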

[2] = In vitro stability in rat kidney homogenate; assay type: in vitro ADME; conditions: rat, tissue homogenate
In short: as §1

human APJ receptor = molecular target: T1, human APJ receptor (Homo sapiens, UniProt P35414); assay: [35S] GTPγS assay, human APJ receptor; assay type: biochemical
T1 construct: expressed in transfected cells
T1 sequence (P35414 1-380): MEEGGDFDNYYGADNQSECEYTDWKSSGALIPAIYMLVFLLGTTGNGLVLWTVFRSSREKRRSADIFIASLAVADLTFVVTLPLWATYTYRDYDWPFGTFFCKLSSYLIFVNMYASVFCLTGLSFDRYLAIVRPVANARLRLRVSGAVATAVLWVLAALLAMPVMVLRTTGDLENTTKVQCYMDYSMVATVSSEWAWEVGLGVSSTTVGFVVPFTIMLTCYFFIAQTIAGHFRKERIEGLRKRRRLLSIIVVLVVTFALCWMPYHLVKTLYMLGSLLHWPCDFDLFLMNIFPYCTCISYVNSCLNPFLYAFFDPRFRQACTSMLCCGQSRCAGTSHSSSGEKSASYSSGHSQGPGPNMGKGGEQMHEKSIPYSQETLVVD

[3] = In vitro stability in rat liver homogenate; assay type: in vitro ADME; conditions: tissue homogenate
In short: as §1

rat APJ receptor = molecular target: T2, rat APJ receptor (Rattus norvegicus, UniProt Q9JHG3); assay: [35S] GTPγS assay, rat APJ receptor; assay type: biochemical; conditions: Table 16, read-out: EC50 Rat APJ Receptor
T2 construct: expressed in transfected cells
T2 sequence (Q9JHG3 1-377): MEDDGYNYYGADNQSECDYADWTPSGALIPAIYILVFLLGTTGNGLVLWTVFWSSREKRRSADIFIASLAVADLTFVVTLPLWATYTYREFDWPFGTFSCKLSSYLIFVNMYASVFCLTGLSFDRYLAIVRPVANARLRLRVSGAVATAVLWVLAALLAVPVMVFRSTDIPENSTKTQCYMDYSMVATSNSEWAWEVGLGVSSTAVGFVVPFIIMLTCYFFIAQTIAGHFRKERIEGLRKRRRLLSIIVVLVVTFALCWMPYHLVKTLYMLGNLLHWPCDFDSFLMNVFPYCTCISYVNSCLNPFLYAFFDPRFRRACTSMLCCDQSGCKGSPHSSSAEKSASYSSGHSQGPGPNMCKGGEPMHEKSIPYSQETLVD
Protocol: The membranes were incubated with modified peptides in the assay buffer. […] Bound [^35S] GTPγS was separated from free radiolabel by filtration. The filter bound radioactivity was determined by liquid scintillation counting.

remaining at 4 h, 5 μM [1] [%]	remaining at 4 h, 5 μM [2] [%]	EC50 (human APJ receptor; Table 16) [nM]	remaining at 4 h, 5 μM [3] [%]	EC50 (human APJ receptor; human APJ receptor) [nM]	EC50 (rat APJ receptor) [nM]	Compound
81.5	2	0.0519	2.5	–	–	CCCCCCCCCCCCC(=O)N[C@@H](CCC(=O)NCCOCCOCC(=O)NCCOCCOCC(=O)N[C@@H](CCC(N)=O)C(=O)N[C@@H](CCCNC(=N)N)C(=O)N1CCC[C@H]1C(=O)N[C@@H](CCCCNC(=N)N)C(=O)N[C@@](C)(CC(C)C)C(=O)N[C@@H](CO)C(=O)N[C@@H](Cc1c[nH]cn1)C(=O)N[C@@H](CCCCN)C(=O)NCC(=O)N1[C@H](C(=O)N[C@@H](CCCC)C(=O)N2CCC[C@H]2C(=O)N[C@@H](Cc2ccc(Cl)cc2)C(=O)O)C[C@@H]2CCCC[C@@H]21)C(=O)O [compound 360] ({Tridecanoyl-γGlu-AEEA-AEEA}-QRP[hArg][αMeL]SHKG[Oic][Nle]P[Phe(4-Cl)]-OH)
> 90	73.4	–	86.5	17.8	–	CCCCCCCCCCCCC(=O)N[C@@H](CCC(=O)NCCOCCOCC(=O)NCCOCCOCC(=O)N[C@@H](CCCC)C(=O)N[C@H](CCCNC(=N)N)C(=O)N[C@@H](CCC(N)=O)C(=O)N[C@@H](CCCCNC(=N)N)C(=O)N1CCC[C@H]1C(=O)N[C@H](CCCNC(=N)N)C(=O)N(C)[C@@H](CC(C)C)C(=O)N[C@@H](C)C(=O)N[C@@H](Cc1c[nH]cn1)C(=O)N[C@@H](CCCCN)C(=O)NCC(=O)N1[C@H](C(=O)N[C@@H](Cc2ccc(I)cc2)C(=O)N2CCC[C@H]2C(=O)N[C@H](Cc2ccc(-c3ccccc3)cc2)C(=O)O)C[C@@H]2CCCC[C@@H]21)C(=O)O [compound 320] ({Tridecanoyl-γGlu-AEEA-AEEA}-[Nle][dR]Q[hArg]P[dR][NMeL]AHKG[Oic][Phe(4-I)]P[dBip]-OH)
58	4	0.0934	6	–	–	CCCCCCCCCCCCC(=O)N[C@@H](CCC(=O)NCCOCCOCC(=O)NCCOCCOCC(=O)N[C@H](CCC(N)=O)C(=O)N[C@@H](CCCNC(=N)N)C(=O)N1CCC[C@H]1C(=O)N(C)[C@@H](CCCNC(=N)N)C(=O)N[C@@](C)(CC(C)C)C(=O)N[C@@H](CO)C(=O)N[C@@H](Cc1c[nH]cn1)C(=O)N[C@@H](CCCCN)C(=O)NCC(=O)N1[C@H](C(=O)N[C@@H](CCCC)C(=O)N2CCC[C@H]2C(=O)N[C@@H](Cc2ccc(Cl)cc2)C(=O)O)C[C@@H]2CCCC[C@@H]21)C(=O)O [compound 386] ({Tridecanoyl-γGlu-AEEA-AEEA}-[dQ]RP[NMeR][αMeL]SHKG[Oic][Nle]P[Phe(4-Cl)]-OH)
> 90	8	0.147	< 1	–	0.253	CCCCCCCCCCCCC(=O)N[C@@H](CCC(=O)NCCOCCOCC(=O)NCCOCCOCC(=O)N[C@@H](CCC(N)=O)C(=O)N[C@@H](CCCNC(=N)N)C(=O)N1CCC[C@H]1C(=O)N(C)[C@@H](CCCNC(=N)N)C(=O)N[C@@H](CC1CCCCC1)C(=O)N[C@@H](CO)C(=O)N[C@@H](Cc1c[nH]cn1)C(=O)N[C@@H](CCCCN)C(=O)NCC(=O)N1CCC[C@@]1(C)C(=O)N[C@@H](CCCC)C(=O)N1CCC[C@H]1C(=O)N[C@@H](Cc1ccc(Cl)cc1)C(=O)O)C(=O)O [compound 418] ({Tridecanoyl-γGlu-AEEA-AEEA}-QRP[NMeR][Cha]SHKG[αMeP][Nle]P[Phe(4-Cl)]-OH)
> 90	< 1	2.02	5	–	–	CCCCCCCCCCCCC(=O)N[C@@H](CCC(=O)NCCOCCOCC(=O)NCCOCCOCC(=O)N[C@H](CCC(N)=O)C(=O)N[C@@H](CCCNC(=N)N)C(=O)N1CCC[C@H]1C(=O)N[C@@H](CCC(=O)O)C(=O)N[C@@H](CC1CCCCC1)C(=O)N[C@@H](CO)C(=O)N[C@@H](Cc1c[nH]cn1)C(=O)N[C@@H](CCCCN)C(=O)NCC(=O)N1[C@H](C(=O)N[C@@H](CCCC)C(=O)NC(C)(C)C(=O)N[C@@H](Cc2ccc(Cl)cc2)C(=O)O)C[C@@H]2CCCC[C@@H]21)C(=O)O [compound 526] ({Tridecanoyl-γGlu-AEEA-AEEA}-[dQ]RPE[Cha]SHKG[Oic][Nle][Aib][Phe(4-Cl)]-OH)

Source: patent US11807693B2 (priority 2014, dated 2023)
